Numbered stars: 1 amine (or outer) side, 2 acyl side, 3 side chain; on linkers, the order of the positions; unused ones are H or OH. Square brackets hold non-standard residues; d marks the D form. Peptide text beside a SMILES is read from it. * marks the point of attachment. Cholyl = C[C@H](CCC(=O)*)[C@H]1CC[C@H]2[C@@H]3[C@H](O)C[C@@H]4C[C@H](O)CC[C@]4(C)[C@H]3C[C@H](O)[C@]12C; X2 = O=C(C1(O)C[C@H](O)[C@@H](N[*:1])[C@H]([C@H](O)[C@H](O)CO)O1)[*:2]
How the values were obtained:
[1] = biological target: T1, Aβ1-40 (Homo sapiens, UniProt P05067); assay: Seeded extension assay (thioflavin T fluorescence); format: biochemical; parameters: Natural β-AP (β-AP1-40) was obtained commercially from Bachem (Torrance, Calif.); purchased Bachem (Torrance, Calif.); settings: Table V; 25 mole % inhibitor
T1 sequence (P05067 672-711): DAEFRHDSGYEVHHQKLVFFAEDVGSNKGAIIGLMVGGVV
Experimental: The seeded extension assay can be employed to measure the rate of Aβ fiber formed in a solution of Aβ monomer following addition of polymeric Aβ fiber "seed". The ability of test compounds to prevent further deposition of monomeric Aβ to previously deposited amyloid is determined using a direct indicator of β-sheet formation using fluorescence. In contrast with the nucleation assay, the addition of seed provides immediate nucleation and continued growth of preformed fibrils without the need for continuous mixing, and thus results in the absence of a lag time before polymerization starts. Since this assay uses static polymerization conditions, the activity of positive compounds in the nucleation assay can be confirmed in this second assay under different conditions and with an additional probe of amyloid structure.
Samples of the solution are then diluted in thioflavin T (Th-T). The polymer-specific association of Th-T with Aβ produces a fluorescent complex that allows the measurement of the extent of fibril formation (Levine, H. (1993) Protein Science 2:404-410). In particular, association of Th-T with aggregated β-AP, but not monomeric or loosely associated β-AP, gives rise to a new excitation (ex) maximum at 450 nm and an enhanced emission (em) at 482 nm, compared to the 385 nm (ex) and 445 nm (em) for the free dye. Small aliquots of the polymerization mixture contain sufficient fibril to be mixed with Th-T to allow the monitoring of the reaction mixture by repeated sampling. A linear growth curve is observed in the presence of excess monomer. The formation of thioflavin T responsive β-sheet fibrils parallels the increase in turbidity observed using the nucleation assay.
To prepare the stock seed, 1 ml of the Aβ monomer preparation, is incubated for approximately 8 days at 37° C. and sheared sequentially through an 18, 23, 26 and 30 gauge needle 25, 25, 50, and 100 times respectively. 2 μl samples of the sheared material is taken for fluorescence measurements after every 50 passes through the 30 gauge needle until the fluorescence units (FU) plateau (approx. 100-150×). Test compounds are prepared by dissolving an appropriate amount of test compound in 1× PBS to a final concentration of 1 mM (10× stock). If insoluble, the compound is dissolved in 1/10 volume of DMSO and diluted in 1× PBS to 1 mM. A further 1/10 dilution is also prepared to test each candidate at both 100 μM and 10 μM.
To perform the seeded extension assay, each sample is set up with 50 μl of 200 μM monomer, 125 FU sheared seed (a variable quantity dependent on the batch of seed, routinely 3-6 μl) and 10 μl of 10× modulator solution. The sample volume is then adjusted to a final volume of 100 μl with 1× PBS. Two concentrations of each modulator typically are tested: 100 μM and 10 μM, equivalent to a 1:1 and a 1:10 molar ratio of monomer to modulator. The controls include an unseeded reaction to confirm that the fresh monomer contains no seed, and a seeded reaction in the absence of any modulators, as a reference to compare against candidate modulators. The assay is incubated at 37° C. for 6 h, taking 2 μl samples hourly for fluorescence measurements. To measure fluorescence, a 2 μl sample of Aβ is added to 400 μl of Thioflavin-T solution (50 mM Potassium Phosphate […] pH 7.5). The samples are vortexed and the fluorescence is read in a 0.5 ml micro quartz cuvette at EX 450 nm and EM 482 nm (Hitachi 4500 Fluorimeter).
The modulators were evaluated in the nucleation and seeded extension assays described in Example 6 and the results are summarized below in Table V. The change in lag time (ΔLag) is presented as the ratio of the lag time observed in the presence of the test compound to the lag time of the control. […] Inhibition (% Inucl'n) is listed as the percent reduction in the maximum observed turbidity in the control at the end of the assay time period. […]

[2] = biological target: T1, Aβ1-40; assay: biochemical; settings: read-out: % Inucl'n (percent reduction in maximum turbidity)
[3] = biological target: T1, Aβ1-40
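For % Inhibition of Plateau in this document: Aβ nucleation assay tracking fiber polymerization from monomer by turbidity (light scattering), shaken continuously in 96-well plates, read every 15 min over 5 h, compared with compound-free control.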
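For ΔLag (ratio of lag time with test compound to lag time of control) in this document: Aβ nucleation assay tracking fiber polymerization from monomer by turbidity (light scattering), shaken continuously in 96-well plates, read every 15 min over 5 h, compared with compound-free control.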

Row | SMILES | % Iext'n (percent reduction of thioflavin-T fluorescence) [1] [%] | inhibition at 100 % [2] [%] | ΔLag (ratio of lag time with test compound to lag time of control) ([3]; Table V, 100 mole % inhibitor relative to Aβ1-40) | % Inhibition of Plateau [3] | inhibition at 33 % [2] [%]
1 | CC(C)C[C@H](N)C(=O)N[C@H](C(=O)N[C@@H](Cc1ccccc1)C(=O)N[C@@H](Cc1ccccc1)C(=O)N[C@@H](C)C(=O)O)C(C)C [PPI-386] | 11 | 15 | 1.0 | – | –
2 | CC(C)C[C@H](NC(=O)[C@H](CCCCN)NC(=O)CC[C@@H](C)[C@H]1CC[C@H]2[C@@H]3[C@H](O)C[C@@H]4C[C@H](O)CC[C@]4(C)[C@H]3C[C@H](O)[C@]12C)C(=O)N[C@H](C(=O)N[C@@H](Cc1ccccc1)C(=O)N[C@@H](Cc1ccccc1)C(N)=O)C(C)C [PPI-319, cholyl-Aβ16-20-amide] | 52 | 70 | – | ~ 0% | –
3 | CC(C)C[C@H](NC(=O)CC[C@@H](C)[C@H]1CC[C@H]2[C@@H]3[C@H](O)C[C@@H]4C[C@H](O)CC[C@]4(C)[C@H]3C[C@H](O)[C@]12C)C(=O)N[C@@H](C)C(=O)N[C@@H](Cc1ccccc1)C(=O)N[C@@H](Cc1ccccc1)C(=O)N[C@@H](C)C(=O)O [PPI-389] (Cholyl-LAFFA-OH) | 66 | 47 | – | – | –
4 | CC(C)[C@H](NC(=O)CC[C@@H](C)[C@H]1CC[C@H]2[C@@H]3[C@H](O)C[C@@H]4C[C@H](O)CC[C@]4(C)[C@H]3C[C@H](O)[C@]12C)C(=O)N[C@@H](Cc1ccccc1)C(=O)N[C@@H](Cc1ccccc1)C(=O)N[C@@H](C)C(=O)O [PPI-392] (Cholyl-VFFA-OH) | 10 | 76 | – | – | –
5 | CC(=O)N[C@H]1[C@H]([C@H](O)[C@H](O)CO)OC(O)(C(=O)N[C@@H](CCCCN)C(=O)N[C@@H](CC(C)C)C(=O)N[C@H](C(=O)N[C@@H](Cc2ccccc2)C(=O)N[C@@H](Cc2ccccc2)C(=O)O)C(C)C)C[C@@H]1O (stereo partly drawn) [PPI-373] (Ac-[X2]KLVFF-OH) | 8 | 16 | – | – | –
6 | CC(C)[C@H](NC(=O)[C@H](Cc1ccccc1)NC(=O)[C@H](Cc1ccccc1)NC(=O)CC[C@@H](C)[C@H]1CC[C@H]2[C@@H]3[C@H](O)C[C@@H]4C[C@H](O)CC[C@]4(C)[C@H]3C[C@H](O)[C@]12C)C(=O)O [PPI-429] | 7 | -33 | – | – | –
7 | CC(C)[C@H](NC(=O)[C@H](C)NC(=O)CC[C@@H](C)[C@H]1CC[C@H]2[C@@H]3[C@H](O)C[C@@H]4C[C@H](O)CC[C@]4(C)[C@H]3C[C@H](O)[C@]12C)C(=O)N[C@@H](Cc1ccccc1)C(=O)N[C@@H](Cc1ccccc1)C(=O)N[C@@H](C)C(=O)O [PPI-388] (Cholyl-AVFFA-OH) | 44 | 68 | – | – | –
8 | C[C@H](NC(=O)[C@H](C)NC(=O)[C@H](C)NC(=O)[C@H](C)NC(=O)[C@H](C)NC(=O)CC[C@@H](C)[C@H]1CC[C@H]2[C@@H]3[C@H](O)C[C@@H]4C[C@H](O)CC[C@]4(C)[C@H]3C[C@H](O)[C@]12C)C(=O)O [PPI-365, Cholyl-penta-alanine, reference compound] | 0 | -7 | – | ~ 0% | –
9 | CC(C)C[C@H](NC(=O)CC[C@@H](C)[C@H]1CC[C@H]2[C@@H]3[C@H](O)C[C@@H]4C[C@H](O)CC[C@]4(C)[C@H]3C[C@H](O)[C@]12C)C(=O)N[C@H](C(=O)N[C@@H](Cc1ccccc1)C(=O)N[C@@H](Cc1ccccc1)C(=O)N[C@@H](C)C(=O)O)C(C)C [PPI-368, cholyl-Aβ17-21] | 91 | 100 | – | 100% | –
10 | CC(C)C[C@H](NC(=O)CC[C@@H](C)[C@H]1CC[C@H]2[C@@H]3[C@H](O)C[C@@H]4C[C@H](O)CC[C@]4(C)[C@H]3C[C@H](O)[C@]12C)C(=O)N[C@H](C(=O)N[C@@H](Cc1ccccc1)C(=O)N[C@@H](Cc1ccccc1)C(=O)N[C@H](C)C(=O)O)C(C)C [PPI-381] | 11 | 56 | – | – | –
11 | C[C@H](NC(=O)[C@H](Cc1ccccc1)NC(=O)[C@H](Cc1ccccc1)NC(=O)CC[C@@H](C)[C@H]1CC[C@H]2[C@@H]3[C@H](O)C[C@@H]4C[C@H](O)CC[C@]4(C)[C@H]3C[C@H](O)[C@]12C)C(=O)O [PPI-395] | 6 | 51 | – | – | –
12 | CC(C)C[C@H](NC(=O)CC[C@@H](C)[C@H]1CC[C@H]2[C@@H]3[C@H](O)C[C@@H]4C[C@H](O)CC[C@]4(C)[C@H]3C[C@H](O)[C@]12C)C(=O)N[C@H](C(=O)N[C@@H](C)C(=O)N[C@@H](Cc1ccccc1)C(=O)N[C@@H](C)C(=O)O)C(C)C [PPI-390] (Cholyl-LVAFA-OH) | 0 | 25 | – | – | –
13 | CC(C)C[C@H](NC(=O)[C@@H](NC(=O)[C@H](Cc1ccccc1)NC(=O)[C@H](Cc1ccccc1)NC(=O)CC[C@@H](C)[C@H]1CC[C@H]2[C@@H]3[C@H](O)C[C@@H]4C[C@H](O)CC[C@]4(C)[C@H]3C[C@H](O)[C@]12C)C(C)C)C(=O)O [PPI-430] (Cholyl-FFVL-OH) | 75 | 33 | – | – | –
14 | CC(C)C[C@H](NC(=O)[C@@H](NC(=O)[C@H](Cc1ccccc1)NC(=O)[C@H](CCCCN)NC(=O)[C@H](Cc1ccccc1)NC(=O)CC[C@@H](C)[C@H]1CC[C@H]2[C@@H]3[C@H](O)C[C@@H]4C[C@H](O)CC[C@]4(C)[C@H]3C[C@H](O)[C@]12C)C(C)C)C(=O)O [PPI-372] (Cholyl-FKFVL-OH) | 37 | 45 | – | – | –
15 | CC(C)C[C@H](NC(=O)[C@@H](NC(=O)[C@H](Cc1ccccc1)NC(=O)[C@H](Cc1ccccc1)NC(=O)CC[C@@H](C)[C@H]1CC[C@H]2[C@@H]3[C@H](O)C[C@@H]4C[C@H](O)CC[C@]4(C)[C@H]3C[C@H](O)[C@]12C)C(C)C)C(=O)N[C@@H](C)C(=O)O [PPI-426] (Cholyl-FFVLA-OH) | 89 | 100 | – | – | –
16 | CC(C)[C@H](NC(=O)CC[C@@H](C)[C@H]1CC[C@H]2[C@@H]3[C@H](O)C[C@@H]4C[C@H](O)CC[C@]4(C)[C@H]3C[C@H](O)[C@]12C)C(=O)N[C@@H](Cc1ccccc1)C(=O)N[C@@H](Cc1ccccc1)C(=O)O [PPI-394] | 0 | 55 | – | – | –
17 | CC(C)[C@H](NC(=O)[C@@H](NC(=O)[C@H](CCCCN)NC(=O)CC[C@@H](C)[C@H]1CC[C@H]2[C@@H]3[C@H](O)C[C@@H]4C[C@H](O)CC[C@]4(C)[C@H]3C[C@H](O)[C@]12C)[C@@H](C)O)C(=O)N[C@@H](Cc1ccccc1)C(=O)N[C@@H](Cc1ccccc1)C(=O)O [PPI-375] (Cholyl-KTVFF-OH) | 21 | 18 | – | – | –
18 | CC(C)C[C@H](NC(=O)CC[C@@H](C)[C@H]1CC[C@H]2[C@@H]3[C@H](O)C[C@@H]4C[C@H](O)CC[C@]4(C)[C@H]3C[C@H](O)[C@]12C)C(=O)N[C@H](C(=O)N[C@@H](Cc1ccccc1)C(=O)N[C@@H](Cc1ccccc1)C(=O)O)C(C)C [PPI-380] | 51 | – | – | – | 72
19 | CC(C)C[C@H](NC(=O)CC[C@@H](C)[C@H]1CC[C@H]2[C@@H]3[C@H](O)C[C@@H]4C[C@H](O)CC[C@]4(C)[C@H]3C[C@H](O)[C@]12C)C(=O)N[C@H](C(=O)N[C@@H](Cc1ccccc1)C(=O)O)C(C)C [PPI-393] | 0 | 1 | – | – | –
